The source of these data is patent US20110105554A1, “MEANS FOR TREATING MYOSIN-RELATED DISEASES” (KINARIS BIOMEDICALS GMBH, priority 2007, published 2011).

In one assay the target is chicken myosin-5a (Gallus gallus, UniProt Q02440). Description: In vitro motility assay (actin filament sliding), myosin-5a. The conditions noted are these: 10 μM PBP. Format: biochemical. How it is done: (b) Inhibition of chicken myosin-5a by PBP in the in vitro motility assay. The histograms show the average sliding velocity of Rh/Ph-labeled actin filaments in the absence and presence of 10 μM PBP. Myosin-5a moves actin filaments with an average velocity of 0.6 μm/s±0.05 (dark bars); addition of 10 μM PBP into the same flow cell decreases the average sliding velocity to 0.013 μm/s±0.002 (light grey bars).
chicken myosin-5a, sequence (Q02440 1-764): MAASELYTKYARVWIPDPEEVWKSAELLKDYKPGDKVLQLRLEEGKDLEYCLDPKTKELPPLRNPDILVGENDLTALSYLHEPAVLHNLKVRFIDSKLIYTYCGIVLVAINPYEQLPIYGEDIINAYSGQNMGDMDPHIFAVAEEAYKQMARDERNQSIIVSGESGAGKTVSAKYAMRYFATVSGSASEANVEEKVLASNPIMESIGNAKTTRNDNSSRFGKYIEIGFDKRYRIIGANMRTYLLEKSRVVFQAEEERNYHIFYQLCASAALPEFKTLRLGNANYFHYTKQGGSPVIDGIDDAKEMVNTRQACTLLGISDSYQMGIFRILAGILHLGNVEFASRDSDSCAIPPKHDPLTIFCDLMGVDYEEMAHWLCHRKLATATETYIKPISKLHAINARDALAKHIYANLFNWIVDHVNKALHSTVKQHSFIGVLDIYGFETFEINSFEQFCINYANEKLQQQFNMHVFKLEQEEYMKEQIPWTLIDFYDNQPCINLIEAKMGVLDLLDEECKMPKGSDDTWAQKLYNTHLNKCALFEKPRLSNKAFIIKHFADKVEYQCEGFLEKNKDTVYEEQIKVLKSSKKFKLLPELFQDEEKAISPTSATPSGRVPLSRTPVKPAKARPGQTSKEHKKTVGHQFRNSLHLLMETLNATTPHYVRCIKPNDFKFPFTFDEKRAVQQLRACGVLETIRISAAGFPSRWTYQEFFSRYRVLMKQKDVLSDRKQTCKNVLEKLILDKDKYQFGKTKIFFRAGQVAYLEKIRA
The extent and order of isoform-specific differences in the potency of the inhibitor were additionally confirmed by the results of in vitro motility assays). […] (FIG. 11a) Myosin-5a moves actin filaments with an average velocity of 0.6 μm/s±0.05 (dark bars); addition of 10 μM PBP into the same flow cell lead to a 46-fold reduction of the average sliding velocity to 0.013 μm/s±0.002 (light grey bars).
Direct functional Assays. Actin-sliding motility was performed at 25° C. using an Olympus IX81 inverted fluorescence microscope. Experimental flow cells were constructed using bovine serum albumin (0.5 mg/ml in assay buffer)-coated glass slides and nitrocellulose-coated coverslips. Myosins were actin affinity-purified immediately before use, to remove rigor heads^20. […] Average sliding velocity was determined from the Gaussian distribution of automatically tracked actin filaments using DiaTrack 3.0 and Origin 7.0.

Assay [1] has as its system human hepatocyte carcinoma cells (Hep G2). Description: cells. Conditions: Homo sapiens, HepG2, 4 h, read-out: half effective concentration EC50, neutral red uptake. The procedure:
Cytotoxicity may be assayed by determining the cellular uptake of neutral red. Only living cells are capable of neutral red uptake via an active transport mechanism. For an exemplary workflow of a cytotoxicity assay, see FIG. 16.
FIG. 16: Cytotoxicity assay.
FIG. 22: Cytotoxic testing of KIN-compounds by neutral red uptake assays. (a) human hepatocyte carcinoma cells (Hep G2) were exposed to KIN-43 for 4 h in the in presence of 1% FBS.
We are using a library of common organic molecules and functional groups and are applying an empirical force field description of the nonbonding interactions between a ligand and the binding site in order to build up de novo compounds with spatial and electrostatic properties complementary to the allosteric binding site.

The next assay concerns the target T1, Dictyostelium myosin-5b (Dictyostelium discoideum, UniProt P54697).
T1 construct: comprising amino acids 1-698, 1-765, and 1-839 respectively; made in house
Description: Actin-activated ATPase activity (NADH-coupled assay), Dictyostelium myosin-5b. Format: biochemical. How it is done:
Based on the structure of the myosin-2 motor domain with bound PBP, we performed molecular modeling studies to elucidate the specificity of PBP-binding to myosins from different classes. […] To test the predictions from the modeling studies, we determined actin-activated ATPase activities in the presence of 0 to 150 μM PBP with rabbit skeletal myosin-2 heavy meromyosin (HMM), myosin-5a isolated from chicken brain, and recombinant Dictyostelium myosin class-1, 2 and 5 motor-domain constructs (FIG. 9a). […] The concentrations of PBP required for half-maximal inhibition of the different myosin motors was calculated from fitting the data to hyperbolae. […] To determine the extend to which PBP impairs the coupling between the actin- and nucleotide-binding sites of myosin, we measured the ATP turn-over rates of Dictyostelium myosin-2 and myosin-5b motor domain constructs over the range from 0 to 50 μM F-actin in the absence and presence of 25 μM PBP.
Values for the rate of maximum ATP turnover (kcat), the concentration of F-actin at which half-maximal activation is achieved (Kapp), and the apparent second order rate constant for actin binding (kcat/Kapp) were estimated from a fit of the data to a hyperbolic function. kcat/Kapp is a direct measure of the coupling efficiency between actin and nucleotide binding and can be determined from the initial slope at F-actin concentrations much smaller than Kapp. […] ATP turn-over rates of Dictyostelium myosin-2 (◯) and Dictyostelium myosin-5b (▪) at increasing F-actin concentrations in the absence (filled symbols) and presence (open symbols) of 25 μM pentabromopseudilin (FIG. 9b):
Protein preparation. Rabbit fast skeletal muscle heavy meromyosin (HMM) was prepared as described by Kron and Spudich^9. Motor domain constructs of myosin-1E, myosin-2, and myosin-5b from Dictyostelium discoideum comprising amino acids 1-698, 1-765, and 1-839 respectively, were prepared as described previouslyl^10-12. Myosin-5a heavy meromyosin from chicken brain was provided by Dr. T. Scholz (Hannover Medical School, Germany) and F-actin was prepared as described by Lehrer and Kerwar^13.
Steady-state kinetics. Basal and actin-activated Mg^2+-ATPase activities were measured with the NADH-coupled assay^19 in a buffer containing 25 mM HEPES, 25 mM KCl, and 4 mM MgCl2, 0.5 mM DTT at pH 7.0 in the presence of 1 mM ATP at 25° C. PBP was added to the reaction mixture in the absence of nucleotide and incubated for 20 minutes before the reaction was started by the addition of ATP. NADH oxidation was followed using the change in absorption at 340 nm in a Beckman DU-800 spectrophotometer.

The test system of assay [2] is skinned muscle fibre preparations from rabbit psoas muscle. Description: Isometric force measurement on skinned muscle fibres. From the text:
To test the effect of PBP on fully assembled myofilament arrays, we examined the contractile properties of skinned muscle fibre preparations from rabbit psoas muscle. Pentabromopseudilin leads to a more than 4-fold reduction in isometric force development of skinned muscle fibre preparations from rabbit psoas muscle. The Ki is in the same range as that determined for actomyosin ATPase activity. (FIG. 12)

Structures are written as SMILES. “And” between values parts separate entries of the source, which are not always exact repeats. Equal entries are not always repeated.

T1 sequence (P54697 1-839): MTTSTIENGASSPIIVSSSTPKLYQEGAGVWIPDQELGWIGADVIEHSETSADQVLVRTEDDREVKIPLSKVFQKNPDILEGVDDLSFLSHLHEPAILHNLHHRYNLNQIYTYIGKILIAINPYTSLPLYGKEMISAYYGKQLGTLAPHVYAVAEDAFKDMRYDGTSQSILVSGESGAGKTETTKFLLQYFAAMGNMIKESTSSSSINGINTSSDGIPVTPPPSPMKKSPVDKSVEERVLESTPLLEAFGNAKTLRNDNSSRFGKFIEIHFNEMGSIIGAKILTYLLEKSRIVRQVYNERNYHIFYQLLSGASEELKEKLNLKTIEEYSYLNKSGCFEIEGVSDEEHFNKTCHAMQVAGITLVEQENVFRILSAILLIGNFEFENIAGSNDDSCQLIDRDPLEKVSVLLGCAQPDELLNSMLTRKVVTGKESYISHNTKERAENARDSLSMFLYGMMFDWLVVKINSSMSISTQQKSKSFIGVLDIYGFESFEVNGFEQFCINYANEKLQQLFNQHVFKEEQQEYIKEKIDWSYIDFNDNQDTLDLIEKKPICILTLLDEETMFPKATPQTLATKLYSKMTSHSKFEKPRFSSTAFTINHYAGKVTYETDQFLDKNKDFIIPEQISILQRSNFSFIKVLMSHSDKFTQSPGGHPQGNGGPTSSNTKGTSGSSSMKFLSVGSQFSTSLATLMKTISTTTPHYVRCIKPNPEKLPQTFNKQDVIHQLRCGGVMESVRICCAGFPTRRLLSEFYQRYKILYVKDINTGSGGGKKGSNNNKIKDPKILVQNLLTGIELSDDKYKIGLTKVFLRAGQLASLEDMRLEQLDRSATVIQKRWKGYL
Description for mammalian myosin-5a: In this context, preferred selectivity means a more than 20-fold smaller IC50 value compared to fast skeletal muscle myosin-2 and other references myosins.

On to `Oc1c(Br)cc(Br)cc1-c1[nH]c(Br)c(Br)c1Br` [KIN-43], for which the “fold reduction of the average sliding velocity” value on chicken myosin-5a worked out at 46 fold. In addition, at chicken myosin-5a (0.6 μm/s without), the “average sliding velocity of actin filaments” value was found to be 0.013 μm/s. Moreover, the EC50 in assay [1] came to 0.03 µM. At Dictyostelium myosin-5b (25 μM PBP), the “fold weaker coupling (kcat/Kapp)” value is listed as 26 fold. Further, the “kcat/Kapp (apparent second order rate constant for actin binding)” value on Dictyostelium myosin-5b (25 μM PBP, 0 to 50 μM F-actin, 0.32 without) stood at 12000 M⁻¹ s⁻¹. Besides, the “ATPase activity at 30 μM F-actin in the presence of inhibitor” value at Dictyostelium myosin-5b (>100 μM PBP, 5.5 s^−1 without) was determined as 0.05 s⁻¹. Besides, the Ki at Dictyostelium myosin-5b (Ki, half-maximal inhibition of actin-activated ATPase activity, 0 to 150 μM PBP, hyperbolic fit) was 19.3 µM and 19.1 µM. Besides, on Dictyostelium myosin-5b (class-5 myosins), the “fold decrease in kcat” value was “approximately 8 fold” and the “fold increase in Kapp” value was “more than 25 fold”. For the same compound, the “preferred selectivity: fold smaller IC50 compared to fast skeletal muscle myosin-2 and other reference myosins” value in the assay with mammalian myosin-5a is on record as “more than 20 fold”. The “fold reduction in isometric force development” value in assay [2] is “more than 4 fold”.

A word on the Ki: it is a dissociation constant, usually derived from enzyme kinetics or from competition with a known ligand. A lower Ki goes with higher affinity.
